According to patent US9480418B2, “Systems and methods for the screening and monitoring of inner ear function” (The United States Government as represented by the …, priority 2012, dated 2016):

System: hearing in the SRO frequencies
Test: Validation study: SRO hearing monitoring with OtoID in subjects receiving cisplatin
Format: in vivo, human
Settings: 9 ears of 24 monitored; Validation sample
Source text: Validation Study, Sample Subjects. […] Subjects were prescreened using the electronic medical records for exclusionary criteria and to obtain treatment information. The subjects enrolled in the Validation study were part of a larger project to develop and evaluate a portable hearing testing device capable of measuring extended high frequency hearing. Except for the following two study-related differences, the same exclusionary criteria were used to recruit both groups of subjects (those participating in the Developmental or Validation studies). First, there was no exclusion for extent of hearing threshold loss in the Validation study sample. Second, subjects from the Validation study were tested on the chemotherapy unit or at bedside in the case of inpatients. There was no overlap of subjects in these two samples.
Validation Study; Equipment and Measurements. […] This device, the OtoID, was evaluated in an independent study for its ability to optimize the sensitivity, efficiency, and cost-effectiveness of ototoxicity early identification practices. […]
Sennheiser HDA 200 earphones were used with the OtoID to reduce the detrimental effects of environmental noise. […] The seven frequencies constituting each subject's individualized behavioral SRO were evaluated at each treatment interval. […] Subjects were also evaluated immediately following cessation of treatment and at 1 mo post-cessation of treatment. […]

In the case of `N.N.[Cl][Pt][Cl]` [cisplatin], the “ears in which hearing loss occurred” value is reported as 38%.
